# Legend:
# α4β1 integrin = target: T1, α4β1 integrin (Homo sapiens, UniProt P05556+P13612); assay: α4β1 Integrin Adhesion Assay: Jurkat Cell Adhesion to Human Plasma Fibronectin; assay type: cell-based; conditions: Jurkat cells
# T1 construct: Jurkat™ cells (maintained in log phase growth) were labeled with Calcein AM; endogenous in cells; host or cells: Jurkat cells
# Protocol: 96 well plates (Costar 3590 EIA plates) were coated with human fibronectin (Gibco/BRL, cat #33016–023) at a concentration of 10 μg/mL overnight at 4° C. The plates were then blocked with a solution of bovine serum albumin (BSA; 0.3%) in saline. Jurkat™ cells (maintained in log phase growth) were labeled with Calcein AM according to the manufacturer's instructions, and suspended at a concentration of 2×10^6 cells/mL in Hepes/Saline/BSA. The cells were then exposed to test and control compounds for 30 minutes at room temperature before transfer to individual wells of the fibronectin coated plate. Adhesion was allowed to occur for 35 minutes at 37° C. The wells were then washed by gentle aspiration and pipetting with fresh saline. Fluorescence associated with the remaining adherent cells was quantified using a fluorescence plate reader at EX 485/EM 530.
# Cell cultures were prepared by first splitting the stationary phase Jurkat™ cells at 1:10 on day one, and 1:2 on day two to perform assay on day 3. The cells split 1:10 on day one were split 1:4 on day 3 for a day 4 assay.
# The assay plates were prepared by first making a working solution of Gibco/BRL Human Fibronectin (cat #33016-023) in PBS++, at 10 μg/mL. A Costar 3590 EIA plate was then coated with 50 μL/well for 2 hours at room temperature (thought it can also be left overnight at 4° C.). Finally the plate was asperated and blocked with Hepes/Saline Buffer, 100 μL/well, for 1 hour at RT followed by washing 3× with 150 μL of PBS++.
# Compound dilutions were accomplished by preparing 1:3 serial dilutions of compounds as follows. For each plate (4 compounds/plate) 600 μL were added to 4 Bio-Rad Titertubes in a Titertube rack. […] Using Falcon Flexiplates, 100 μL of Hepes/Saline buffer or human serum were added to rows B through G. A multi-channel pipetter set to 180 μL was used to with four tips spaced evenly the pipetter. Each set of four tubes was mixed 5 times and 180 μL of 2× compound was transferred to the first column of each compound dilution in Row B, leaving Row A empty. 180 μL were added to the other wells in Row A. Serial dilutions were performed down the plate by transferring 50 μL to the next dilution and mixing 5 times, changing tips each time after mixing.
# A 20 μg/mL solution in Hepes/Saline buffer or human serum, of 21/6 antibody was the positive control and was set aside in a reagent trough to add to cell suspension plate.
# The cell staining was accomplished by first harvesting the log-phase Jurkat™ cells by centrifugation in 50 mL tubes (1100 rpm for 5 minutes). The cells were resuspended in 50 mL PBS++, spun, and resuspend in 20 mL PBS++. The cells were stained by adding 20 μL of Calcein AM for 30 minutes RT. The volume was brought to 50 mL with Hepes/Saline buffer and the cells were counted, spun, and resuspend to 2×10^6 cells/mL in Hepes/Saline buffer or human serum.
# The compounds were incubated using the following procedure. In a new flexiplate, 65 μL of stained cells were added to Rows B through H. Then 65 μL of 2× compounds were added to the appropriate rows following the plate setup and mixed three times. 65 μL of 2×-21/6 antibody were added to Row H and mixed 3×. Finally the plate was incubated at room temperature for 30 minutes.
# Fibronectin adhesion was measured using a fluorescent plate reader at EX 485/EM 530 after the following work up procedure. After incubation, the cells were mixed three times and 100 μL were transfered to the Fibronectin coated plates and incubated at 37° C. for about 35 minutes. Each plate was washed, row by row, by gently pipetting 100 μL of RT. PBS++ down the sides of the wells and turning the plate 90 degrees to aspirate. This procedure was repeated for a total of 3 washes. Each well was filled with 100 μL after washing by pipetting down the side of the well.
# An IC50 value was calculated for each compound, both in the presence of the human serum and in the absence of human serum.
# [1] = Cassette Dosing and Serum Analysis for Determination of Bioavailability; assay type: in vivo, rat; conditions: average AUC 0→12 h, male Sprague Dawley rats, single oral cassette dose (6 compounds, total dose 10 mg/kg), plasma
# Protocol: The cassette included 5 test articles and a standard compound, for a total dose of 10 mg/kg. Each compound/test article was converted to the sodium salt with equimolar 1 N NaOH and dissolved in water at 2 mg/mL. The cassette was prepared by mixing equal volumes of each of the six solutions. The cassette dosing solution was mixed well and then the pH was adjusted to 7.5–9. The dosing solution was prepared the day before the study and stirred overnight at room temperature.
# Male Sprague Dawley (SD) rats from Charles River Laboratories, 6–8 weeks old were used in this screen. Rats were quarantined for at least one day and had continuous access to food and water. On the night before the administration of the cassette, the rats were fasted for approximately 16 h.
# Four SD rats were assigned in each cassette. A single dose of the dosing solution was administered orally to each rat. The dosing volume (5 mL/kg) and time were recorded and rats were fed 2 h after dosing.
# Blood samples were collected via cardiac puncture at the following time points: 4 h, 8 h and 12 h. Immediately prior to blood collection, rats were anesthetized with CO2 gas within 10–20 seconds. After the 12-h samples were collected, the rats were euthanized via CO2 asphyxiation followed by cervical dislocation.
# Blood samples were kept in heparinized microtainer tubes under sub-ambient temperature (4° C.) before they were processed. Blood samples were centrifuged (10000 rpm for 5 minutes) and plasma samples were removed and stored in a −20° C. freezer until analyzed for drug levels. Drug levels in the plasma were analyzed using the following protocol for direct plasma precipitation.
# The in vivo plasma samples were prepared in a 1.5 mL 96-well plate, by adding, in order, 100 μL of the test plasma, 150 μL of methanol, followed by vortexing for 10–20 seconds. 150 μL of 0.05 ng/μL of an Internal Standard in acetonitrile were added and vortexed for 30 seconds.
# The standard curve samples were prepared in a 1.5 mL 96-well plate, by adding, in order, 100 μL of control mouse plasma, followed by 150 μL of methanol and vortexing for 10–20 seconds. 150 μL of 0.05 ng/μL of an Internal Standard in acetonitrile were added and vortexed for 30 seconds. The samples were spiked with 0–200 ng (10 concentrations) of the compound of interest in 50% methanol to obtain a standard curve range of 0.5 ng/mL–2,000 ng/mL. Again, the sample was vortexed for 30 seconds.
# The samples were then spun for 20–30 minutes at 3000 rpm in an Eppendorf microfuge before 80–90% of supernatant was transferred into a clean 96-well plate. The organic solvent was then evaporated until the samples were dry (under N2 at 40° C./30–60 min (Zymark Turbovap)).
# The residue was then dissolved in […] mobile phase (50% CH3OH/0.1% TFA). LC/MS/MS was then run using a PE-Sciex API-3000 triple quadurpole mass spectrometer (SN0749707), Perkin-Elmer, Series200auto-sampler, and shimadzu 10A pump. Acquisition was done with PE-Sciex Analyst (v1.1) and data analysis and quantification were accomplished using PE-Sciex Analyst (v1.1). A 5–50 μL sample volume was injected onto a reverse phase ThermoHypersil DASH-18 column (Keystone 2.0×20 mm, 5 μm, PN: 8823025-701) using a mobile phase of 25% CH3OH, 0.1% TFA-100% CH3OH, 0.1% TFA. The run time was about 8 minutes at a flow rate of about 300 μL/minutes.
# The Area Under the Curve (AUC) was calculated using the linear trapezoidal rule from t=0 to the last sampling time tx (see Handbook of Basic Pharmacokinetics, Wolfgang A. Ritschel and Gregory L. Kearns, 5th ed, 1999). AUC^0→tx=S((Cn+Cn+1)/2))·(tn+1−tn)[(μg/mL)h]
# T1 sequence (P13612 34-1032): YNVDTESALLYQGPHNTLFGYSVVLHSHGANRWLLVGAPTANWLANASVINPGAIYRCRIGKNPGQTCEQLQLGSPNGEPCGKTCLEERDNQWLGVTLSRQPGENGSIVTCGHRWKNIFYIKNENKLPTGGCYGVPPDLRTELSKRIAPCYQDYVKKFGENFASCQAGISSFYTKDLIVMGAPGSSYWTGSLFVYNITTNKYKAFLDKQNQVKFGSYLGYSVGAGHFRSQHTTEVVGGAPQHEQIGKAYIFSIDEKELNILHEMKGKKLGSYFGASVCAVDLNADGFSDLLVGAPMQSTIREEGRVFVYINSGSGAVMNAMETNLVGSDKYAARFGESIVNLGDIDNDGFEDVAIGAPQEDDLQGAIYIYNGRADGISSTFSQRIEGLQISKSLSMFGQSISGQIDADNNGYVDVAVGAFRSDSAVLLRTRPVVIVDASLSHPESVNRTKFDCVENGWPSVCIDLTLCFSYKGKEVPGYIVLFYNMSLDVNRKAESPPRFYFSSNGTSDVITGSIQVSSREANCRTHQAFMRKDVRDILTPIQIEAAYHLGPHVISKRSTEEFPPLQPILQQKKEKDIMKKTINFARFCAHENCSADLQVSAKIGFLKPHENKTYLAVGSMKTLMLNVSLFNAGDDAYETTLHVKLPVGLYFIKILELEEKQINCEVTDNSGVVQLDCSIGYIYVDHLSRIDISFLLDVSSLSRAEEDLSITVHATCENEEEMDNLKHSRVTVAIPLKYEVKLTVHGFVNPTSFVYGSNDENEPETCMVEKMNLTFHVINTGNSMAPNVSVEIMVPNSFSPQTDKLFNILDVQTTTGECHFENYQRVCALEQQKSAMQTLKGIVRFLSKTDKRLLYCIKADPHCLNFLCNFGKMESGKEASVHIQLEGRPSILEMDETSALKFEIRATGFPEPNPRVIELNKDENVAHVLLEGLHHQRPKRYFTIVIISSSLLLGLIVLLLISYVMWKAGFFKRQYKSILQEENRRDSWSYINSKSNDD
# T1 sequence (P05556 21-798): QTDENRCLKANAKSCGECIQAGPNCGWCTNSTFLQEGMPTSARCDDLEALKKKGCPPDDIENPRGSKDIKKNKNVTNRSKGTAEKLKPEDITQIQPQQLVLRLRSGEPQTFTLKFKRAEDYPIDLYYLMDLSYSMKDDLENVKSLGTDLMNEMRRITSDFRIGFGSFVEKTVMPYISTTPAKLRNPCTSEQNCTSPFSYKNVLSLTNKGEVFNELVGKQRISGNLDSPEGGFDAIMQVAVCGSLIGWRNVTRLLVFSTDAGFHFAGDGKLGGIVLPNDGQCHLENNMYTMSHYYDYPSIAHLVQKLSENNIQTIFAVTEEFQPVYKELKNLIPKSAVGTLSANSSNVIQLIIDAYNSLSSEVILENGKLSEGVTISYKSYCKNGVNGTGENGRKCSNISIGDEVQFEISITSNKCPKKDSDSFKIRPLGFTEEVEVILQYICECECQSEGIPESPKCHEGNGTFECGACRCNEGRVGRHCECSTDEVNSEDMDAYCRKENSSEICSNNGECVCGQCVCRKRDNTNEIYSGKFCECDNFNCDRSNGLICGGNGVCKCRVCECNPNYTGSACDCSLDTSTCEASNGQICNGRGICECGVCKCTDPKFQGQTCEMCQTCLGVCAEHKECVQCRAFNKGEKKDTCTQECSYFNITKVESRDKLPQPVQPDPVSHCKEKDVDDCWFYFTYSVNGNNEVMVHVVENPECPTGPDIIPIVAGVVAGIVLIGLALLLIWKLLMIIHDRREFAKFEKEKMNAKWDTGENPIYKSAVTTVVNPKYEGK
IC50 (α4β1 integrin; containing human serum) [µM],IC50 (α4β1 integrin; without the human serum) [µM],AUC [1],Compound
0.0895,0.00245,1.283 (μg/mL)h,"CCN(CC)c1ncc(N(C)S(=O)(=O)c2ccc(F)cc2F)c(N[C@@H](Cc2ccc(OC(=O)N3CCC3)cc2)C(=O)O)n1 [Example 13, N-(2-[N′,N′-diethylamino]-5-[N″-(2,4-difluorophenylsulfonyl)-N″-methylamino]pyrimidin-4-yl)-4′-(azetidin-1-ylcarbonyloxy)-L-phenylalanine]"
1.73,0.00651,22.271 (μg/mL)h,"CCN(CC)c1ncc(N(C)S(=O)(=O)c2ccc(F)cc2)c(N[C@@H](Cc2ccc(OC(=O)N3CCCC3)cc2)C(=O)O)n1 [Example 3, N-(2-[N′,N′-diethylamino]-5-[N″-(4-fluorophenylsulfonyl)-N″-methylamino]pyrimidin-4-yl)-4′-(pyrrolidin-1-ylcarbonyloxy)-L-phenylalanine]"
0.0829,0.00406,2.1113 (μg/mL)h,"CCN(CC)c1ncc(N(CC)S(=O)(=O)c2ccc(Cl)cc2)c(N[C@@H](Cc2ccc(OC(=O)N3CCC3)cc2)C(=O)O)n1 [Example 10, N-(2-[N′,N′-diethylamino]-5-[N″-(4-chlorophenylsulfonyl]-N″-ethylamino]pyrimidin-4-yl)-4′-(azetidin-1-ylcarbonyloxy)-L-phenylalanine]"
0.702,0.00467,0.5125 (μg/mL)h,"CCN(CC)c1ncc(N(CC)S(=O)(=O)c2ccc(F)cc2)c(N[C@@H](Cc2ccc(OC(=O)N3CCCCC3)cc2)C(=O)O)n1 [Example 6, N-(2-[N′,N′-diethylamino]-5-[N″-(4-fluorophenylsulfonyl)-N″-ethylamino]pyrimidin-4-yl)-4′-(piperidin-1-ylcarbonyloxy)-L-phenylalanine]"
0.0515,0.00339,0.3566 (μg/mL)h,"CCN(CC)c1ncc(N(CC)S(=O)(=O)c2ccc(F)cc2F)c(N[C@@H](Cc2ccc(OC(=O)N3CCC3)cc2)C(=O)O)n1 [Example 14, N-(2-[N′,N′-diethylamino]-5-[N″-(2,4-difluorophenylsulfonyl)-N″-ethylamino]pyrimidin-4-yl)-4′-(azetidin-1-ylcarbonyloxy)-L-phenylalanine]"
0.225,0.00166,2.4082 (μg/mL)h,"CCN(CC)c1ncc(N(C)S(=O)(=O)c2ccc(F)cc2)c(N[C@@H](Cc2ccc(OC(=O)N3CCC3)cc2)C(=O)O)n1 [Example 8, N-(2-[N′,N′-diethylamino]-5-[N″-(4-fluorophenylsulfonyl)-N″-methylamino]pyrimidin-4-yl)-4′-(azetidin-1-ylcarbonyloxy)-L-phenylalanine]"
0.565,0.0137,23.808 (μg/mL)h,"C#CCN(c1cnc(N(CC)CC)nc1N[C@@H](Cc1ccc(OC(=O)N2CCCC2)cc1)C(=O)O)S(=O)(=O)c1ccc(F)cc1F [Example 16, N-(2-[N′,N′-diethylamino]-5-[N″-(2,4-difluorophenylsulfonyl)-N″-propargylamino]pyrimidin-4-yl)-4′-(pyrrolidin-1-ylcarbonyloxy)-L-phenylalanine]"
